pKd: −log10 of the molar value. Where a SMILES comes first, the peptide text is derived from it. Bridges are numbered along the chain shown (N, C = ends). [ ]: non-standard residue; d: D form. The star is where a group is joined. hPhe(3-Cl-4-CF3) = N[C@@H](CCc1ccc(C(F)(F)F)c(Cl)c1)C(=O)O; NPrPhe(4-CF3) = CCCN[C@@H](Cc1ccc(C(F)(F)F)cc1)C(=O)O; NMeGly(cPent) = CN[C@H](C(=O)O)C1CCCC1; NMeD = CN[C@@H](CC(=O)O)C(=O)O; NMeL = CN[C@@H](CC(C)C)C(=O)O; NMeAbu = CC[C@H](NC)C(=O)O; Morpholide = C1CN(*)CCO1; Ac4c = NC1(C(=O)O)CCC1; Sar = CNCC(=O)O
Assays:
[1] = molecular target: GDP-bound KRAS wild-type protein (Homo sapiens, UniProt P01116); assay: Binding to KRAS by surface plasmon resonance (SPR), Single Cycle Kinetics; settings: SPR, Single Cycle Kinetics, GDP-bound KRAS wild-type protein; read-out: KRAS KD
GDP-bound KRAS wild-type protein, sequence (P01116 whole entry): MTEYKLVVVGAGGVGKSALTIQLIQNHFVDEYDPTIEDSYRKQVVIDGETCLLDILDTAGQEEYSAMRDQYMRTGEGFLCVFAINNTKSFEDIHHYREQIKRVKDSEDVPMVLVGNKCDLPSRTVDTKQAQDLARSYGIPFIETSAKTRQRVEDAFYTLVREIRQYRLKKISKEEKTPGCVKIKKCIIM

[2] = molecular target: GDP-bound NRAS wild-type protein (Homo sapiens, UniProt P01111); assay: Binding to NRAS by surface plasmon resonance (SPR), Single Cycle Kinetics; settings: ratio of KD for GDP-bound NRAS wild-type protein to KD for KRAS, SPR
GDP-bound NRAS wild-type protein, sequence (P01111 whole entry): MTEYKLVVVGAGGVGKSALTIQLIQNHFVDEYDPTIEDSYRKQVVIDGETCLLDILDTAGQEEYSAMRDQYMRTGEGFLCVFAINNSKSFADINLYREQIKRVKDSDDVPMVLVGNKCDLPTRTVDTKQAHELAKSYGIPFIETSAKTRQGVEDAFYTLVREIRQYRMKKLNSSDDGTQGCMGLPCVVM

[3] = molecular target: GDP-bound HRAS wild-type protein (Homo sapiens, UniProt P01112); assay: Binding to HRAS by surface plasmon resonance (SPR), Single Cycle Kinetics; settings: ratio of KD for GDP-bound HRAS wild-type protein to KD for KRAS, SPR
GDP-bound HRAS wild-type protein, sequence (P01112 whole entry): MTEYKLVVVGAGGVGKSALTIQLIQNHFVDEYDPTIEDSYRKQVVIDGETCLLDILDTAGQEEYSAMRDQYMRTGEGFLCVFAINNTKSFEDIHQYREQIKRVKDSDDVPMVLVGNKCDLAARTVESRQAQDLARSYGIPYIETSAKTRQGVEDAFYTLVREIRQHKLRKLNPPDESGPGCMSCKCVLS

[4] = tested on: human lung cancer strain NCI-H441; assay: cells; settings: NCI-H441, 96 h, read-out: NCI-H441 IC50 (nM), NCI-H441 cell proliferation, 4 days, CellTiter-Glo;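 also: cell proliferation inhibition after four days measured by CellTiter-Glo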

Structure (SMILES)	pKd [1]	NRAS/KRAS (KD ratio) [2]	HRAS/KRAS (KD ratio) [3]	IC50 [4] [nM]
CCOC[C@H]1C(=O)N[C@@H]([C@@H](C)CC)C(=O)N(C)CC(=O)N(C)[C@H]2C/C=C\CCN(C2=O)[C@@H](Cc2ccc(C(F)(F)F)cc2)C(=O)N(C)CC(=O)N[C@@H](CCc2ccc(C(F)(F)F)c(OC)c2)C(=O)N2C[C@@H](C)C[C@H]2C(=O)NC2(CCC2)C(=O)N(C)[C@@H](C2CCCC2)C(=O)N(C)[C@H](C(=O)N(C)CC)CC(=O)N1C [PP2026]	10.05	A (a compound having 10 or more and less than 20 is denoted as A)	A (a compound having 10 or more and less than 20 is denoted as A)	22.6
CCO[C@@H]1C[C@H]2C(=O)NC3(CCCC3)C(=O)N(C)[C@@H](C3CCCC3)C(=O)N(C)[C@H](C(=O)N(C)C)CC(=O)N(C)[C@@H](CC)C(=O)N[C@@H]([C@@H](C)CC)C(=O)N(C)CC(=O)N(C)[C@H]3C/C=C\CCN(C3=O)[C@@H](Cc3ccc(C(F)(F)F)cc3)C(=O)N(C)CC(=O)N[C@@H](CCc3cc(C)c(Cl)c(C)c3)C(=O)N2C1 [PP1823]	9.00	A (a compound having 10 or more and less than 20 is denoted as A)	A (a compound having 10 or more and less than 20 is denoted as A)	55.9
CCO[C@@H]1C[C@H]2C(=O)NC3(CC(C)(C)C3)C(=O)N(C)[C@@H](C3CCCC3)C(=O)N(C)[C@H](C(=O)N(C)C)CC(=O)N(C)[C@@H](CC(C)C)C(=O)N[C@@H]([C@@H](C)CC)C(=O)N(C)CC(=O)N(C)[C@H]3C/C=C\CCN(C3=O)[C@@H](Cc3ccc(C(F)(F)F)cc3)C(=O)N(C)CC(=O)N[C@@H](CCc3ccc(C(F)(F)F)c(Cl)c3)C(=O)N2C1 [PP1751]	10.33	A (a compound having 10 or more and less than 20 is denoted as A)	A (a compound having 10 or more and less than 20 is denoted as A)	2.2
CCO[C@@H]1C[C@H]2C(=O)NC3(CC(C)(C)C3)C(=O)N(C)[C@@H](C3CCCCC3)C(=O)N(C)[C@H](C(=O)N(C)C)CC(=O)N(C)[C@@H](CC)C(=O)N[C@@H]([C@@H](C)CC)C(=O)N(C)CC(=O)N(C)[C@H]3C/C=C\CCN(C3=O)[C@@H](Cc3ccc(C(F)(F)F)cc3)C(=O)N(C)CC(=O)N[C@@H](CCc3cc(F)c(C(F)(F)F)c(F)c3)C(=O)N2C1 [PP1942]	9.82	AA (a compound having 20 or more is denoted as AA)	A (a compound having 10 or more and less than 20 is denoted as A)	25.7
CCO[C@@H]1C[C@H]2C(=O)N(C)C3(CCCC3)C(=O)N(C)[C@@H](C3CCCC3)C(=O)N(C)[C@H](C(=O)N(C)C)CC(=O)N(C)[C@@H](CC)C(=O)N[C@@H]([C@@H](C)CC)C(=O)N(C)CC(=O)N(C)[C@H]3C/C=C\CCN(C3=O)[C@@H](Cc3ccc(C(F)(F)F)cc3)C(=O)N(C)CC(=O)N[C@@H](CCc3cc(F)c(C(F)(F)F)c(F)c3)C(=O)N2C1 [PP1804]	10.25	A (a compound having 10 or more and less than 20 is denoted as A)	A (a compound having 10 or more and less than 20 is denoted as A)	3.5
CC[C@H](C)[C@@H]1NC(=O)[C@H](CC(C)C)N(C)C(=O)C[C@@H](C(=O)N(C)CC)N(C)C(=O)[C@H](C2CCCC2)N(C)C(=O)C2(CC(C)(C)C2)NC(=O)[C@@H]2C[C@@H](C)CN2C(=O)[C@H](CCc2ccc(C(F)(F)F)c(OC)c2)NC(=O)CN(C)C(=O)[C@H](Cc2ccc(C)cc2)N2CC/C=C\C[C@@H](C2=O)N(C)C(=O)CN(C)C1=O [PP1909]	9.47	A (a compound having 10 or more and less than 20 is denoted as A)	B (a compound having 3 or more and less than 10 is denoted as B)	15.3
CCCOC[C@H]1C(=O)N[C@@H]([C@@H](C)CC)C(=O)N(C)CC(=O)N(C)[C@H]2C/C=C\CCN(C2=O)[C@@H](Cc2ccc(C(F)(F)F)cc2)C(=O)N(C)CC(=O)N[C@@H](CCc2cc(F)c(C(F)(F)F)c(F)c2)C(=O)N2C[C@H](F)C[C@H]2C(=O)NC2(CC(C)(C)C2)C(=O)N(C)[C@@H](C2CCCC2)C(=O)N(C)[C@H](C(=O)N(C)CCC)CC(=O)N1C [PP1698]	10.12	A (a compound having 10 or more and less than 20 is denoted as A)	A (a compound having 10 or more and less than 20 is denoted as A)	5.1
CC[C@H](C)[C@@H]1NC(=O)[C@H](C2CC2)N(C)C(=O)C[C@@H](C(=O)N(C)C)N(C)C(=O)[C@H](C2CCCC2)N(C)C(=O)C2(CCCC2)N(C)C(=O)[C@@H]2C[C@@H](C)CN2C(=O)[C@H](CCc2cc(F)c(C(F)(F)F)c(F)c2)NC(=O)CN(C)C(=O)[C@H](Cc2ccc(C)cc2)N2CC/C=C\C[C@@H](C2=O)N(C)C(=O)CN(C)C1=O [PP1813]	9.92	A (a compound having 10 or more and less than 20 is denoted as A)	B (a compound having 3 or more and less than 10 is denoted as B)	22.6
CCO[C@@H]1C[C@H]2C(=O)NC3(CC(C)(C)C3)C(=O)N(C)[C@@H](C3CCCC3)C(=O)N(C)[C@H](C(=O)N(C)C)CC(=O)N(C)[C@@H](CC(F)F)C(=O)N[C@@H]([C@@H](C)CC)C(=O)N(C)CC(=O)N(C)[C@H]3C/C=C\CCN(C3=O)[C@@H](Cc3ccc(C(F)(F)F)cc3)C(=O)N(C)CC(=O)N[C@@H](CCc3ccc(C(F)(F)F)c(Cl)c3)C(=O)N2C1 [PP1747]	10.24	A (a compound having 10 or more and less than 20 is denoted as A)	A (a compound having 10 or more and less than 20 is denoted as A)	2.3
CC[C@H](C)[C@@H]1NC(=O)[C@H](CC2CC2)N(C)C(=O)C[C@@H](C(=O)N(C)C)N(C)C(=O)[C@H](C2CCCC2)N(C)C(=O)C2(CC(C)(C)C2)NC(=O)[C@@H]2C[C@H](C)CN2C(=O)[C@H](CCc2ccc(C(F)(F)F)c(OC)c2)NC(=O)CN(C)C(=O)[C@H](Cc2ccc(C)cc2)N2CC/C=C\C[C@@H](C2=O)N(C)C(=O)CN(C)C1=O [PP1898]	9.89	B (a compound having 3 or more and less than 10 is denoted as B)	B (a compound having 3 or more and less than 10 is denoted as B)	6.3
CCO[C@@H]1C[C@H]2C(=O)NC3(CCC3)C(=O)N(C)[C@@H](C3CCCC3)C(=O)N(C)[C@H](C(=O)N(C)CC)CC(=O)N(C)[C@@H](CC)C(=O)N[C@@H]([C@@H](C)CC)C(=O)N(C)CC(=O)N(C)[C@H]3C/C=C\CCN(C3=O)[C@@H](Cc3ccc(C)cc3)C(=O)N(C)CC(=O)N[C@@H](CCc3ccc(C(F)(F)F)c(OC)c3)C(=O)N2C1 [PP1869]	9.89	A (a compound having 10 or more and less than 20 is denoted as A)	A (a compound having 10 or more and less than 20 is denoted as A)	36.4
CCCN1C(=O)CN(C)C(=O)CN(C)C(=O)[C@H]([C@@H](C)CC)NC(=O)[C@H](CC(C)C)N(C)C(=O)C[C@@H](C(=O)N2CCOCC2)N(C)C(=O)[C@H](C2CCCC2)N(C)C(=O)C2(CCC2)NC(=O)[C@H](CC)N(C)C(=O)[C@H](CCc2ccc(C(F)(F)F)c(Cl)c2)NC(=O)CN(C)C(=O)[C@@H]1Cc1ccc(C(F)(F)F)cc1 [PP1918] ([NMeL]I[Sar][Sar][NPrPhe(4-CF3)][Sar][hPhe(3-Cl-4-CF3)][NMeAbu][Ac4c][NMeGly(cPent)][NMeD]-Morpholide; lactam N-11)	9.72	B (a compound having 3 or more and less than 10 is denoted as B)	C (A compound having a KD ratio of 0.1 or more and less than 3 is denoted as C)	32.8
CCCN(C)C(=O)[C@@H]1CC(=O)N(C)[C@@H](CC(F)F)C(=O)N[C@@H]([C@@H](C)CC)C(=O)N(C)CC(=O)N(C)[C@H]2C/C=C\CCN(C2=O)[C@@H](Cc2ccc(C(F)(F)F)cc2)C(=O)N(C)CC(=O)N[C@@H](CCc2cc(F)c(C(F)(F)F)c(F)c2)C(=O)N2C[C@H](OCC)C[C@H]2C(=O)NC2(CC(C)(C)C2)C(=O)N(C)[C@@H](C2CCCC2)C(=O)N1C [PP2030]	9.92	A (a compound having 10 or more and less than 20 is denoted as A)	A (a compound having 10 or more and less than 20 is denoted as A)	4.5
CCCC[C@H]1C(=O)N[C@@H]([C@@H](C)CC)C(=O)N(C)CC(=O)N(C)[C@H]2C/C=C\CCN(C2=O)[C@@H](Cc2ccc(C(F)(F)F)cc2)C(=O)N(C)CC(=O)N[C@@H](CCc2cc(F)c(C(F)(F)F)c(F)c2)C(=O)N2CC(F)(F)C[C@H]2C(=O)NC2(CC(C)(C)C2)C(=O)N(C)[C@@H](C2CCCC2)C(=O)N(C)[C@H](C(=O)N(C)C)CC(=O)N1C [PP1714]	10.00	A (a compound having 10 or more and less than 20 is denoted as A)	A (a compound having 10 or more and less than 20 is denoted as A)	4.3

Reference: patent publication US20240158446A1, “CYCLIC COMPOUND HAVING SELECTIVE INHIBITORY ACTION ON KRAS OVER HRAS AND NRAS” (CHUGAI SEIYAKU KABUSHIKI KAISHA, priority 2021, published 2024)
